{
  "source": "patent US20100119595A1",
  "about": "“Monounsaturated fatty acids and perhydrocyclopentanophenanthrene nucleus combination molecules, and their precursors, and the use of all of these as weight-loss agents” (priority 2001, published 2010)",
  "key": {"[1]": {"test_system": "MCF-7 human breast cancer cell line", "test": "MCF-7 human breast cancer cell line test", "format": "cell-based", "excerpt": "The practical use of any compound given to humans for the treatment of obesity require, of course, that the compound not only be effective, but able to pass the FDA requirements and be approved as a drug suitable for humans. […] One test used to determine reactivity with human breast cancer cells is the “MCF-7 human breast cancer cell line test”. The lower the concentration of drug required to produce agonist activity, the more potential there is for problems with cancer causing &/or promotion in humans A comfortable level in the pharmaceutical industry would be a reactivity in the micromolar range. In the case of oleyl estrone, agonist activity begins at […]; with estrone eicosenoate, agonist activity begins at a ten times greater concentration of 1.0 nanomolar. This low concentration of agonist activity mitigates the possibility that these compounds would gain FDA approval for either drug."}, "[2]": {"test": "Stability of the compound"}, "human T47D breast cells": {"test_system": "human T47D breast cells", "conditions": "ER-CALUX; cited from earlier work"}, "[3]": {"test": "Human study of 2 hydroxy estrone eicosenoate (Example 8)", "format": "in vivo", "conditions": "humans, oral capsule, 0.75 or 0.375 micromoles/kg", "description": "In this random, double-blind, placebo controlled study, subjects are selected to one of three groups and take a capsule orally every morning containing one of the following: a) sunflower oil (placebo), b) 2 hydroxy estrone eicosenoate dissolved in sunflower oil at a dose of 0.75 micromoles/kg, or c) 2 hydroxy estrone eicosenoate dissolved in sunflower oil at a dose of 0.375 micromoles/kg. […]\nDifferent tests are performed at least five different times during each study, namely at the screening of potential participants, at the beginning of the study, weekly during the trials, at the end of the first 4 week period and at the end of the second 4 week treatment period. • 1) SCREENING: Subjects are screened to exclude hypothyroidism, pregnancy, and heart disease. […] Subjects selected to participate in the studies have the following initial measurements: WEIGHT, WAIST to HIP RATIO, HEIGHT, BMI (calculated), BODY FAT % & TOTAL BODY FAT (via bioelectrical impedance method). […]\nAd libitum diets are followed, and food intake and appetite are assessed daily by the patient with an appropriate questionnaire and booklet. […]"}, "[4]": {"test": "Rat study of 2 hydroxyestrone eicosenoate (Example 9)", "format": "in vivo, Osborne Mendle rats", "conditions": "rats, oral gavage 21 days, 10, 5, 3.33 or 2.5 micromoles/kg", "description": "Osborne Mendle rats are selected as the study subjects due to their propensity to gain fat to when fed a high fat diet. An initial measurement of body weight is performed on each rat.\nThe rats are placed individually in appropriate cages and allowed an ad libitum diet of standard rat chow and water for a 10-day period. During this 10-day period the rats are gavaged daily with 0.1 cc volume of sunflower oil to allow them to become comfortable with being handled and receiving the gavage tube (it takes about 10 days for this acclimation to occur, and is important so that the animals are not stressed by the gavage).\nDaily measurements include the following: • 1. Weight • 2. Weight of food consumed • 3. Spillage • 4. Water consumed, both volume and weight\nThe rats remain confined and are denied out-of-cage activity or exercise for the duration of the experiment other than normal daily activity confined to the cage. This initial 10 day period establishes a pattern and average of weight gain, to acclimate the animals to the gavage procedure, and determine the average food and water consumption for each rat. […]\nAt the end of the study, rats are anesthetized then sacrificed via guillotine. […] Weight of the uterus is determined. […]"}, "[5]": {"test": "Rabbit 10-day oral study: body weight and food consumed (Example 1)", "protocol": "During the first 3 weeks, rabbits were only weighed and allowed to eat. On the fourth week, all rabbits were given 0.05 cc dose of peanut oil.\nFive New Zealand white rabbits were obtained and caged in their natural environment (outside) and fed a cafeteria, ad libitum diet of rabbit chow. […] The appropriate weights of OE or EE were diluted in peanut oil to provide concentrations as follows: 1) OE, 2 mg/0.05 cc; 2) EE, 1 mg/0.05 cc; 3) 0.33 mg/0.05 cc; 4) EE, 0.1mg/0.05 cc, 5) EE, 0.03 mg/0.05 cc\nFor the initial three weeks, the rabbits were given no medicine or oil. Body weight and food consumed were measured daily; establishing a daily average for food consumed and weight change.\nRabbits received the assigned dose for 10 consecutive days. Rabbit weight (kg) and food eaten (grams) were determined daily."}, "[6]": {"conditions": "cited from earlier work"}},
  "note": "“Also recorded” adds a separate entry of the source.",
  "data": [
    {"smiles": "CCCCCCCC/C=C\\CCCCCCCCCC(=O)Oc1cc2c(cc1Br)[C@H]1CC[C@]3(C)C(=O)CC[C@H]3[C@@H]1CC2", "note": "(relative stereo) [bromo compound, 2-bromoestrone ester of cis-11-eicosenoic acid]", "values": [
      {"measurement": "reactivity in MCF-7 test", "setting": "[1]; compared with oleoyl estrone", "result": "only as reactive as oleoyl estrone"},
      {"measurement": "stability", "setting": "[2]", "result": "stable"}
    ]},
    {"smiles": "C[C@]12CC[C@@H]3c4cc(O)c(O)cc4CC[C@H]3[C@@H]1CCC2=O", "note": "[2 hydroxy estrone]", "values": [
      {"measurement": "times less active than estrone", "setting": "human T47D breast cells", "result": "10,000 times"}
    ]},
    {"smiles": "CCCCCCCC/C=C\\CCCCCCCCCC(=O)Oc1cc2c(cc1O)[C@H]1CC[C@]3(C)C(=O)CC[C@H]3[C@@H]1CC2", "note": "[2-hydroxy estrone eicosenoate]", "values": [
      {"measurement": "appetite", "setting": "[3]", "result": "reduces appetite"},
      {"measurement": "weight loss, loss of body fat, and/or decrease of body fat%", "setting": "[3]", "result": "produces weight loss"},
      {"measurement": "body weight &/or body fat", "setting": "[4]", "result": "reduction of body weight &/or body fat"},
      {"measurement": "food consumption", "setting": "[4]", "result": "reduction in food consumption"}
    ]},
    {"smiles": "CCCCCCCC/C=C\\CCCCCCCC(=O)Oc1ccc2c(c1)CC[C@@H]1[C@@H]2CC[C@]2(C)C(=O)CC[C@@H]12", "note": "[OE, Oleoyl-estrone, reference compound]", "values": [
      {"measurement": "concentration at which agonist activity begins", "setting": "[1]; MCF-7 human breast cancer cells", "result": 0.9, "unit": "nM"},
      {"measurement": "FINAL WT.", "setting": "[5]; OE 2 mg/d oral in peanut oil, 10 days, one rabbit, initial wt 3.70 kg", "result": 3.60, "unit": "kg"},
      {"measurement": "WT. Δ w/ Rx 10 days", "setting": "[5]; OE 2 mg/d oral, 10 days, pre-Rx 10 day avg. +0.121, control +0.14", "result": "−0.10", "unit": "kg"},
      {"measurement": "FOOD/DAY AVG. w/ Rx", "setting": "[5]; OE 2 mg/d oral, 10 days, pre-Rx avg 160.55", "result": 93.8, "unit": "grams"},
      {"measurement": "side effect, behaviour", "setting": "[5]; OE 2 mg/d oral, after one week of therapy, rabbit", "result": "very agitated, mean and aggressive; also recorded: irritability and aggressive behavior"},
      {"measurement": "lipid reserves", "setting": "[6]; Zucker lean rats, one study", "result": "lost virtually all their lipid reserves"},
      {"measurement": "weight loss", "setting": "[6]; variety of rats, i.v. or oral, published articles", "result": "rapid and sustained weight loss"}
    ]},
    {"smiles": "CCCCCCCCCCCCCCCCCC(=O)Oc1ccc2c(c1)CCC1C2CCC2(C)C(=O)CCC12", "note": "(stereo not drawn) [stearoyl estrone]", "values": [
      {"measurement": "efficacy compared with oleoyl estrone", "setting": "[6]; Life Sci, 1998: 62 (15): 1349-59", "result": "less effective"}
    ]}
  ]
}
